Earlier results in patent US5710046A, “Tagging hydrocarbons for subsequent identification” (Amoco Corporation, priority 1994, dated 1998).

[1] = dispersed in methanol or benzene

- fluorescence wavelength [1]: approximately 840 nanometers
- strong absorption [1]: 786 nanometers
- fluorescence (in water): completely non-fluorescent
- solubility (in water): less soluble
SMILES: CCN1C(=CC=CC=CC=Cc2sc3ccc4ccccc4c3[n+]2CC)Sc2ccc3ccccc3c21 [DDTC, 3,3'-diethyl-2,2'-(4,5', 4',5'-dibenzo) thiatricarbocyanine iodide]
